Test results taken from patent publication US20220380763A1, “NUCLEIC ACID DELIVERY ENHANCER” (NATIONAL UNIVERSITY CORPORATION KOCHI UNIVERSITY, priority 2019, published 2022).

Assays:
S2-013 cells = experiment: Matrigel invasion assay; format: cell-based, human; conditions: unmodified siRNA added with folic acid-cationic oligopeptide complex (Fol-Dab8A and Fol-Dab8B); versus control siRNA, P<0.05
Protocol: Each of the scrambled control siRNA, SNORA18 siRNA, NUP85 siRNA, WASF2 siRNA, and SNORA22 siRNA (all used in Example 5) with the folic acid-cationic oligopeptide complex added was added to the culture solution of S2-013 cells, and Matrigel invasion assay was performed after 48 hours.
4.0×10^4 cells were suspended in a serum-free medium and seeded in the upper chamber of a Matrigel Invasion Chamber (24-well plate, pore size: 8 μm, manufactured by Becton, Dickinson, and Company). A solvent containing 5% fetal bovine serum was added to the lower chamber. After the cells were incubated in the upper chamber for 20 hours, three independent areas were observed under a microscope, and the cells invading the lower chamber were counted. The same experiment was repeated three times, and the cell invasion ability of 52-013 cells into which each siRNA was taken up was compared.
The “*” denotes a significant difference at P<0.05 as compared to the control in the t-test.
Each of the scrambled control siRNA (SEQ ID NOs: 3 and 4), SNORA18 siRNA (SEQ ID NOs: 21 and 22), NUP85 siRNA (SEQ ID NOs: 23 and 24), WASF2 siRNA (SEQ ID NOs: 25 and 26), and SNORA22 siRNA (SEQ ID NOs: 27 and 28) was added with 2 equivalents of Dab8, Fol-Dab8A, or Fol-Dab8B to the culture solution of pancreatic cancer cell line S2-013 in culture. As a control, each of the control siRNA, SNORA18 siRNA, NUP85 siRNA, WASF2 siRNA, and SNORA22 siRNA was added alone to the culture solution of the S2-013 cells.
After 48 hours of culture, the Matrigel invasion assay was performed. In the Matrigel invasion assay, the number of cells that have migrated from the upper chamber to the lower chamber is shown. The “*” denotes a significant difference at P<0.05 as compared to the control in the t-test.

[1] = system: S2-013 pancreatic cancer cells; experiment: Lysosome (LysoTracker) and siRNA staining, confocal microscopy; format: cell-based, human; conditions: chemically-modified Alexa488-labeled siRNA with Fol-Dab8A or Fol-Dab8B, 2 equivalents, overnight

Substance | cell invasion (S2-013 cells) | intracellular localization of siRNA [1]
NUP85 siRNA: double-stranded siRNA against NUP85, SEQ ID NOs: 7 and 8 (Table 2) (chain 1 CAGCGGCAGAUGACUGAACAA; chain 2 UUGUUCAGUCAUCUGCCGCUG; listed as RNA, chemistry not given here) | significantly suppressed | 
SNORA18 siRNA: double-stranded siRNA against SNORA18, SEQ ID NOs: 5 and 6 (Table 2) (chain 1 UUUACUUUACUCACAGGACUA; chain 2 UAGUCCUGUGAGUAAAGUAAA; listed as RNA, chemistry not given here) | significantly suppressed | 
SNORA22 siRNA: double-stranded siRNA against SNORA22, SEQ ID NOs: 11 and 12 (Table 2) (chain 1 CUUGGCUUUGACCCUGUGCUA; chain 2 UAGCACAGGGUCAAAGCCAAG; chemistry not given here) | significantly suppressed | localized in lysosomes
WASF2 siRNA: double-stranded siRNA against WASF2, SEQ ID NOs: 9 and 10 (Table 2) (chain 1 UAGGAUUAGAUCAUUAGCUCA; chain 2 UGAGCUAAUGAUCUAAUCCUA; listed as RNA, chemistry not given here) | significantly suppressed | 
